Experimental findings from US20240299316A1, “METHOD FOR TREATING CANCER WITH A[…] RADIATION” (LANTERN PHARMA INC., priority 2021, published 2024) are described below.

Entries after “also recorded” stand apart in the source; their conditions may differ.

The test system of the assay is Panc03.27 xenografts. Kind of assay: Radiation (RT) pretreatment followed by LP-184 in subcutaneous Panc03.27 pancreatic xenografts. Type of assay: in vivo, Mice. The settings on record: for interaction of radiation with LP-184 on tumor volume (synergy) / mean terminal tumor volume of LP-184+RT group relative to LP-184 alone or RT alone: 4 Gy RT + 3 mg/kg i.p. LP-184, 3 mg/kg; for interaction of radiation with LP-184 on tumor volume (synergy): average tumor volume over days post treatment initiation; for mean terminal tumor volume of LP-184+RT group relative to LP-184 alone or RT alone: p value 0.017. The method, then: Radiation (RT) pretreatment of pancreatic tumors and subsequent (−)-hydroxyureamethyl acylfulvene treatment in vivo, 4 Gy RT was administered once weekly followed the next day by 3 mg/kg i.p. LP-184 in Panc03.27 xenografts for a total of 3 weeks. Mice bearing pre-established subcutaneous. Panc03.27 xenografts were treated with vehicle control, 4 Gy RT alone, 3 mg/kg LP-184 alone or their combination.
A line plot of average tumor volume in cubic millimeters over days post treatment initiation in Panc03.27 subcutaneous xenograft tumors treated with vehicle control (gray circles; N=6) is shown, 4 Gy RT alone (red squares; N=5), 3 mg/kg i.p. LP-184 alone (green triangles; N=6), and RT+LP-184 (blue inverted triangles; N=10). Error bars represent SEM.

Turning to `CC1=C2C(=CC(C)C2CN(O)C(N)=O)C(=O)[C@](C)(O)C12CC2` (single isomer, unassigned; (-)) [LP-184, (−)-hydroxyureamethyl acylfulvene], the “interaction of radiation with LP-184 on tumor volume (synergy)” value is recorded as “synergized”. In addition, the “interaction of radiation with LP-184 on tumor volume (synergy)” value (listed as hydroxyureamethyl acylfulvene) is on record as “synergy”. The “mean terminal tumor volume of LP-184+RT group relative to LP-184 alone or RT alone” value (day 21) was “statistically significant differences; also recorded: statistically smaller”. In addition, the “mean terminal tumor volume of LP-184+RT group relative to LP-184 alone or RT alone” value (day 21, listed as hydroxyureamethyl acylfulvene) was “statistically smaller”. Also, the “mean tumor volume, fold lower in LP-184+RT animals compared to LP-184 alone animals” value (4 Gy RT once weekly followed next day by 3 mg/kg i.p. LP-184, 3 weeks, terminal tumors day 21, p=0.017) is roughly 1.8 fold. Under “LP-184+RT group, day 21, FIG. 3”, the “comparison of excised xenograft tumors at study termination across treatment arms” value was “smallest mean volume”. Moreover, the “efficacy of combination therapy using post-radiation treatment” value (post-radiation treatment with LP-184, pancreatic cancer) is “effective”.
